Laboratory results: patent US10357481B2 (MERCK SHARP & DOHME CORP., priority 2015, dated 2019)

Molecular target: T1, human PDE2A1 (Homo sapiens, UniProt O00408)
T1 construct: GST; purchased BPS Bioscience (San Diego, Calif.) 60020; host or cells: insect cells
Assay: IMAP FP PDE selectivity panel, human PDE2A1
Format: biochemical
Conditions: Lab B; read-out: Human PDE2 Ki (nM) Lab B
Method in brief: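 Human PDE2A1 tested alongside PDE1–11 by IMAP fluorescence polarization at room temperature. Substrate was 50 nM FAM-cAMP plus 1000 nM cGMP, buffer pH 7.2 with MgCl2 and DTT, enzyme set for 20% conversion. Ten 3-fold compound dilutions; 60 min reaction, then IMAP binding solution, 1 h, parallel/perpendicular fluorescence read.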

T1 sequence (O00408 1-920 isoform O00408-2): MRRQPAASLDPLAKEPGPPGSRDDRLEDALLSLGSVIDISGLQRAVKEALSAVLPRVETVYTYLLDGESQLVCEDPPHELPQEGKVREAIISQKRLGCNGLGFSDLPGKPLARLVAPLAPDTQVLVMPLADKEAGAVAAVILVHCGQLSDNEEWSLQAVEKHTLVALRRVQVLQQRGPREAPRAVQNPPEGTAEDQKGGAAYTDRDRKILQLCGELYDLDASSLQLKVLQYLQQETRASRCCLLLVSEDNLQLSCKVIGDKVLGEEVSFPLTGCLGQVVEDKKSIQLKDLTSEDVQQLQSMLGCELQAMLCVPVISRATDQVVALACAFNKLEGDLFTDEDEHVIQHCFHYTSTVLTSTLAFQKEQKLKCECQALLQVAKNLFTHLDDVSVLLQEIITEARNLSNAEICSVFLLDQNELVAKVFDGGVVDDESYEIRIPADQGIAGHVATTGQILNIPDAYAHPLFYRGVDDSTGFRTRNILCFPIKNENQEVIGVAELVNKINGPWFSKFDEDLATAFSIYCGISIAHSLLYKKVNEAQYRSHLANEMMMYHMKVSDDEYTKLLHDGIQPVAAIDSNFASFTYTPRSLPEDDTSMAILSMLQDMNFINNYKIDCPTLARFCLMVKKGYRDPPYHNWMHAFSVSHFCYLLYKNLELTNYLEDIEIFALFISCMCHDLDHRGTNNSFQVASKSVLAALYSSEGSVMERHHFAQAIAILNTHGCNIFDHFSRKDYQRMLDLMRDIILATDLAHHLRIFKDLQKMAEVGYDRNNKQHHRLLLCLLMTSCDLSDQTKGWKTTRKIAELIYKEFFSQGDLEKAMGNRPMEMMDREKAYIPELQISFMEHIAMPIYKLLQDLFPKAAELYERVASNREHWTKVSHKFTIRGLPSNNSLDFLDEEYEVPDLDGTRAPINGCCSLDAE

SMILES	Ki [nM]
CC(C)(O)C(Nc1cc(C(F)F)nc2ncnn12)c1ccc(OC(F)(F)F)cc1F (single isomer, unassigned) [Example 186, (1R or S)-{[5-(Difluoromethyl) [1,2,4]triazolo [1,5-a]pyrimidin-7-yl]amino}-1-[2-fluoro-4-(trifluoromethoxy)phenyl]-2-methylpropan-2-ol]	1900
CC(C)(O)C(Nc1cc(C(F)F)nc2ncnn12)c1ccc(OC(F)(F)F)c(F)c1 (single isomer, unassigned) [Example 188, (1R or S)-{[5-(Difluoromethyl) [1,2,4]triazolo [1,5-a]pyrimidin-7-yl]amino}-1-[3-fluoro-4-(trifluoromethoxy)phenyl]-2-methylpropan-2-ol]	> 2960
CC(C)(O)C(Nc1cc(C(F)F)nc2ncnn12)c1ccc(OC(F)F)c(F)c1 (single isomer, unassigned) [Example 190, (1R or S)-[4-(Difluoromethoxy)-3-fluorophenyl]-1-{[5-(difluoromethyl) [1,2,4]triazolo [1,5-a]pyrimidin-7-yl]amino}-2-methylpropan-2-ol]	> 2960
COCC(Nc1cc(C)nc2ncnn12)c1ccc(C(F)(F)F)c(F)c1 (single isomer, unassigned) [Example 209, (R)- or (S)-N-(1-(3-Fluoro-4-(trifluoromethyl)phenyl)-2-methoxyethyl)-5-methyl-[1,2,4]triazolo [1,5-a]pyrimidin-7-amine]	> 2960
COCC(Nc1cc(C)nc2ncnn12)c1ccc(C(F)(F)F)c(F)c1 (single isomer, unassigned) [Example 210, (S)- or (R)-N-(1-(3-Fluoro-4-(trifluoromethyl)phenyl)-2-methoxyethyl)-5-methyl-[1,2,4]triazolo [1,5-a]pyrimidin-7-amine]	583
Cc1cc(NC(c2ccc(C(F)(F)F)cn2)C(C)C)n2ncnc2n1 (single isomer, unassigned) [Example 211, (R)- or (S)-5-Methyl-N-(2-methyl-1-(5-(trifluoromethyl)pyridin-2-yl)propyl)-[1,2,4] triazolo[1,5-a] pyrimidin-7-amine]	~2480
CC(C)(O)C(Nc1cc(C(F)(F)F)nc2ncnn12)c1ccc(C(F)(F)F)c(F)c1 (single isomer, unassigned) [Example 213, (S)- or (R)-1-(3-Fluoro-4-(trifluoromethyl)phenyl)-2-methyl-1-(5-(trifluoromethyl)-[1,2,4]triazolo [1,5-a]pyrimidin-7-ylamino)propan-2-ol]	> 2960
CCC(O)(CC)C(Nc1cc(C)nc2ncnn12)c1ccc(C(F)(F)F)c(F)c1 (single isomer, unassigned) [Example 215, (R)- or (S)-3-((3-Fluoro-4-(trifluoromethyl)phenyl)(5-methyl-[1,2,4]triazolo [1,5-a]pyrimidin-7-ylamino)methyl) pentan-3-ol]	> 2960
COCC(Nc1cc(C(F)(F)F)nc2ncnn12)c1ccc(C(F)(F)F)c(F)c1 (single isomer, unassigned) [Example 218, (S)- or (R)-N-(1-(3-Fluoro-4-(trifluoromethyl)phenyl)-2-methoxyethyl)-5-(trifluoromethyl)-[1,2,4]triazolo [1,5-a]pyrimidin-7-amine]	> 2960
CCC(O)(CC)C(Nc1cc(C(F)(F)F)nc2ncnn12)c1ccc(C(F)(F)F)c(F)c1 (single isomer, unassigned) [Example 220, (S)- or (R)-3-((3-Fluoro-4-(trifluoromethyl)phenyl)(5-(trifluoromethyl)-[1,2,4]triazolo [1,5-a]pyrimidin-7-ylamino)methyl) pentan-3-ol]	~2110
CC(C)(O)C(Nc1cc(C(F)(F)F)nc2ncnn12)c1ccc(SC(F)(F)F)cc1 (single isomer, unassigned) [Example 221, (R)- or (S)-2-Methyl-1-(5-(trifluoromethyl)-[1,2,4]triazolo [1,5-a]pyrimidin-7-ylamino)-1-(4-(trifluoromethylthio)phenyl)propan-2-ol]	> 2960
CC(C)(O)C(Nc1cc(Cl)nc2ncnn12)c1ccc(C(F)(F)F)c(F)c1 (single isomer, unassigned) [Example 224, (S)- or (R)-1-(5-Chloro-[1,2,4]triazolo [1,5-a]pyrimidin-7-ylamino)-1-(3-fluoro-4-(trifluoromethyl)phenyl)-2-methylpropan-2-ol]	612
CC(C)(O)C(Nc1cc(C(F)F)nc2ncnn12)c1ccc(C(F)(F)F)c(F)c1 (single isomer, unassigned) [Example 228, (S)- or (R)-1-(5-(Difluoromethyl)-[1,2,4]triazolo [1,5-a]pyrimidin-7-ylamino)-1-(3-fluoro-4-(trifluoromethyl)phenyl)-2-methylpropan-2-ol]	> 2960
Cc1cc(NC(c2ccc(OC(F)(F)F)c(F)c2)C2COC2)n2ncnc2n1 (single isomer, unassigned) [Example 229, (R)- or (S)-N-((3-Fluoro-4-(trifluoromethoxy)phenyl)(oxetan-3-yl)methyl)-5-methyl-[1,2,4]triazolo [1,5-a]pyrimidin-7-amine]	448

Stronger by Ki, values ahead:

Ki [nM]	SMILES
356	Cc1cc(NC(c2ccc(C(F)(F)F)nc2)C(C)(C)O)n2ncnc2n1 (single isomer, unassigned) [Example 226, (S)- or (R)-2-Methyl-1-(5-methyl-[1,2,4]triazolo [1,5-a]pyrimidin-7-ylamino)-1-(6-(trifluoromethyl)pyridin-3-yl) propan-2-ol]
329	COCC(Nc1cc(C(F)(F)F)nc2ncnn12)c1ccc(C(F)(F)F)c(F)c1 (single isomer, unassigned) [Example 217, (R)- or (S)-N-(1-(3-Fluoro-4-(trifluoromethyl)phenyl)-2-methoxyethyl)-5-(trifluoromethyl)-[1,2,4]triazolo [1,5-a]pyrimidin-7-amine]
310	Cc1cc(NC(c2ccc(C(F)(F)F)cn2)C(C)C)n2ncnc2n1 (single isomer, unassigned) [Example 212, (S)- or (R)-5-Methyl-N-(2-methyl-1-(5-(trifluoromethyl)pyridin-2-yl)propyl)-[1,2,4]triazolo [1,5-a]pyrimidin-7-amine]
258	Cc1cc(NC(c2ccc(C(F)(F)F)nc2)C(C)(C)O)n2ncnc2n1 (single isomer, unassigned) [Example 225, (R)- or (S)-2-Methyl-1-(5-methyl-[1,2,4]triazolo [1,5-a]pyrimidin-7-ylamino)-1-(6-(trifluoromethyl)pyridin-3-yl) propan-2-ol]
252	CCC(O)(CC)C(Nc1cc(C(F)(F)F)nc2ncnn12)c1ccc(C(F)(F)F)c(F)c1 (single isomer, unassigned) [Example 219, (R)- or (S)-3-((3-Fluoro-4-(trifluoromethyl)phenyl)(5-(trifluoromethyl)-[1,2,4]triazolo [1,5-a]pyrimidin-7-ylamino)methyl) pentan-3-ol]
134	CCC(O)(CC)C(Nc1cc(C)nc2ncnn12)c1ccc(C(F)(F)F)c(F)c1 (single isomer, unassigned) [Example 216, (S)- or (R)-3-((3-Fluoro-4-(trifluoromethyl)phenyl)(5-methyl-[1,2,4]triazolo [1,5-a]pyrimidin-7-ylamino)methyl) pentan-3-ol]
25	CC(C)(O)C(Nc1cc(C(F)(F)F)nc2ncnn12)c1ccc(C(F)(F)F)c(F)c1 (single isomer, unassigned) [Example 214, (S)- or (R)-1-(3-Fluoro-4-(trifluoromethyl)phenyl)-2-methyl-1-(5-(trifluoromethyl)-[1,2,4]triazolo [1,5-a]pyrimidin-7-ylamino)propan-2-ol]
17	CC(C)(O)C(Nc1cc(C(F)F)nc2ncnn12)c1ccc(OC(F)F)c(F)c1 (single isomer, unassigned) [Example 189, (1S or R)-[4-(Difluoromethoxy)-3-fluorophenyl]-1-{[5-(difluoromethyl) [1,2,4]triazolo [1,5-a]pyrimidin-7-yl]amino}-2-methylpropan-2-ol]
10	CC(C)(O)C(Nc1cc(C(F)F)nc2ncnn12)c1ccc(OC(F)(F)F)cc1F (single isomer, unassigned) [Example 185, (1S or R)-{[5-(Difluoromethyl) [1,2,4]triazolo [1,5-a]pyrimidin-7-yl]amino}-1-[2-fluoro-4-(trifluoromethoxy)phenyl]-2-methylpropan-2-ol]
7.6	CC(C)(O)C(Nc1cc(C(F)F)nc2ncnn12)c1ccc(C(F)(F)F)c(F)c1 (single isomer, unassigned) [Example 227, (R)- or (S)-1-(5-(Difluoromethyl)-[1,2,4]triazolo [1,5-a]pyrimidin-7-ylamino)-1-(3-fluoro-4-(trifluoromethyl)phenyl)-2-methylpropan-2-ol]
5.5	CC(C)(O)C(Nc1cc(C(F)F)nc2ncnn12)c1ccc(OC(F)(F)F)c(F)c1 (single isomer, unassigned) [Example 187, (1S or R)-{[5-(Difluoromethyl) [1,2,4]triazolo [1,5-a]pyrimidin-7-yl]amino}-1-[3-fluoro-4-(trifluoromethoxy)phenyl]-2-methylpropan-2-ol]
4.4	CC(C)(O)C(Nc1cc(C(F)(F)F)nc2ncnn12)c1ccc(SC(F)(F)F)cc1 (single isomer, unassigned) [Example 222, (S)- or (R)-2-Methyl-1-(5-(trifluoromethyl)-[1,2,4]triazolo [1,5-a]pyrimidin-7-ylamino)-1-(4-(trifluoromethylthio)phenyl)propan-2-ol]
1.1	CC(C)(O)C(Nc1cc(Cl)nc2ncnn12)c1ccc(C(F)(F)F)c(F)c1 (single isomer, unassigned) [Example 223, (R)- or (S)-1-(5-Chloro-[1,2,4]triazolo [1,5-a]pyrimidin-7-ylamino)-1-(3-fluoro-4-(trifluoromethyl)phenyl)-2-methylpropan-2-ol]
